Measured values as given in patent publication US7652054B2, “Tricyclic compounds useful as angiotensin II agonists” (Vicore Pharma AB, priority 2001, dated 2010).

Test system: duodenal mucosal alkaline secretion
Assay: Test C: duodenal mucosal alkaline secretion assay
Type: in vivo
Details: co-administration with title compounds of the Examples, anaesthetised rats
From the text: Duodenal Mucosal Alkaline Secretion Assay
Compounds were exposed to the duodenal mucosa in barbiturate-anaesthetised rats prepared for in situ titration of duodenal mucosal alkaline secretion, according to the methodology described by Flemström et al in Am. J. Physiol. (1982) 243, G348.

Cc1cc(Cn2cnc3c2C[C@@H](C(=O)O)N(C(=O)C(c2ccccc2)c2ccccc2)C3)ccc1N(C)C [PD123319] was tested, and the “effect of co-administration on the mucosal alkalisation stimulated by title compounds” value was “blocked”.
